Measured values from ChEMBL document CHEMBL1649448, “Atorvastatin is a promising partner for antimalarial drugs in treatment of Plasmodium falciparum malaria” (Antimicrob Agents Chemother, 2009).

Experiments:
Assay type in all cases: functional, organism-based
[1] = system: Plasmodium falciparum; assay: Antimalarial activity against Plasmodium falciparum FCR3 harboring Ppcrt M74I, N75E, K76T, A220S, Q271E, N326S and I356T mutant gene, Pmdr1 N86Y mutant gene and Pfmrp H191Y and S437A mutant gene assessed as incorporation of [3H]hypoxanthine after 48 hrs by scintillation counter
[2] = system: Plasmodium falciparum; assay: Antimalarial activity against Plasmodium falciparum IMT 16332 assessed as incorporation of [3H]hypoxanthine after 48 hrs by scintillation counter
[3] = system: Plasmodium falciparum; assay: Antimalarial activity against Plasmodium falciparum D6 assessed as incorporation of [3H]hypoxanthine after 48 hrs by scintillation counter
[4] = system: Plasmodium falciparum; assay: Antimalarial activity against Plasmodium falciparum 106/1 harboring Ppcrt M74I, N75E, K76T, A220S, Q271E, N326S and I356T mutant gene, Pmdr1 N86Y mutant gene and Pfmrp H191Y and S437A mutant gene assessed as incorporation of [3H]hypoxanthine after 48 hrs by scintillation counter
[5] = system: Plasmodium falciparum; assay: Antimalarial activity against Plasmodium falciparum FCM29 assessed as incorporation of [3H]hypoxanthine after 48 hrs by scintillation counter
[6] = system: Plasmodium falciparum; assay: Antimalarial activity against Plasmodium falciparum IMT Vol harboring Ppcrt M74I, N75E, K76T, A220S, Q271E, N326S mutant gene, Pmdr1 N86Y mutant gene and Pfmrp H191Y and S437A mutant gene assessed as incorporation of [3H] hypoxanthine after 48 hrs by scintillation counter
[7] = system: Plasmodium falciparum; assay: Antimalarial activity against Plasmodium falciparum FCM29 harboring Ppcrt M74I, N75E, K76T, A220S, Q271E, N326S and I356T mutant gene, Pmdr1 N86Y mutant gene and Pfmrp H191Y and S437A mutant gene assessed as incorporation of [3H]hypoxanthine after 48 hrs by scintillation counter
[8] = system: Plasmodium falciparum; assay: Antimalarial activity against Plasmodium falciparum IMT K4 harboring Ppcrt M74I, N75E, K76T, A220S, Q271E, N326S mutant gene, Pmdr1 S1034C, N1042D mutant gene and Pfmrp H191Y and S437A mutant gene assessed as incorporation of [3H]hypoxanthine after 48 hrs by scintillation counter
[9] = system: Plasmodium falciparum; assay: Antimalarial activity against Plasmodium falciparum IMT 31 assessed as incorporation of [3H]hypoxanthine after 48 hrs by scintillation counter
[10] = system: Plasmodium falciparum; assay: Antimalarial activity against Plasmodium falciparum PA harboring Ppcrt M74I, N75E, K76T, A220S, Q271E, N326S and I356T mutant gene, Pmdr1 N86Y mutant gene and Pfmrp H191Y and S437A mutant gene assessed as incorporation of [3H]hypoxanthine after 48 hrs by scintillation counter
[11] = system: Plasmodium falciparum; assay: Antimalarial activity against Plasmodium falciparum IMT 10500 harboring Pfcrt Q271E mutant gene and Ppcrt I371R mutant gene and Pfnhe-1 ms4760 microsatellite mutant assessed as incorporation of [3H]hypoxanthine after 48 hrs by scintillation counter
[12] = system: Plasmodium falciparum; assay: Antimalarial activity against Plasmodium falciparum IMT 16332 harboring Ppcrt M74I, N75E, K76T, A220S, Q271E mutant gene, Pmdr1 N86Y mutant gene assessed as incorporation of [3H]hypoxanthine after 48 hrs by scintillation counter
[13] = system: Plasmodium falciparum; assay: Antimalarial activity against Plasmodium falciparum IMT K4 assessed as incorporation of [3H]hypoxanthine after 48 hrs by scintillation counter
[14] = system: Plasmodium falciparum; assay: Antimalarial activity against Plasmodium falciparum IMT L1 harboring Ppcrt M74I, N75E, K76T, A220S, Q271E mutant gene, Pmdr1 N86Y mutant gene and Pfmrp H191Y and S437A mutant gene assessed as incorporation of [3H]hypoxanthine after 48 hrs by scintillation counter
[15] = system: Plasmodium falciparum; assay: Antimalarial activity against Plasmodium falciparum 3D7 assessed as incorporation of [3H]hypoxanthine after 48 hrs by scintillation counter
[16] = system: Plasmodium falciparum; assay: Antimalarial activity against Plasmodium falciparum IMT Guy harboring Ppcrt K76T, A220S, N326D and I371R mutant gene, Pmdr1 T184FN, 1042D and D1246Y, mutant gene and Pfmrp H191Y and S437A mutant gene and Pfnhe-1 ms4760 microsatellite mutant assessed as incorporation of [3H]hypoxanthine after 48 hrs by scintillation counter
[17] = system: Plasmodium falciparum; assay: Antimalarial activity against Plasmodium falciparum IMT 10500 assessed as incorporation of [3H]hypoxanthine after 48 hrs by scintillation counter
[18] = system: Plasmodium falciparum; assay: Antimalarial activity against Plasmodium falciparum PA assessed as incorporation of [3H]hypoxanthine after 48 hrs by scintillation counter
[19] = system: Plasmodium falciparum; assay: Antimalarial activity against Plasmodium falciparum IMT 9881 assessed as incorporation of [3H]hypoxanthine after 48 hrs by scintillation counter
[20] = system: Plasmodium falciparum; assay: Antimalarial activity against Plasmodium falciparum IMT 31 harboring Ppcrt I371R mutant gene assessed as incorporation of [3H]hypoxanthine after 48 hrs by scintillation counter
[21] = system: Plasmodium falciparum; assay: Antimalarial activity against Plasmodium falciparum IMT Bres assessed as incorporation of [3H]hypoxanthine after 48 hrs by scintillation counter
[22] = system: Plasmodium falciparum; assay: Antimalarial activity against Plasmodium falciparum 3D7 harboring Ppcrt I371R mutant gene and Pfnhe-1 ms4760 microsatellite mutant assessed as incorporation of [3H]hypoxanthine after 48 hrs by scintillation counter
[23] = system: Plasmodium falciparum; assay: Antimalarial activity against Plasmodium falciparum HB3 assessed as incorporation of [3H]hypoxanthine after 48 hrs by scintillation counter
[24] = system: Plasmodium falciparum; assay: Antimalarial activity against Plasmodium falciparum D6 harboring Ppcrt I371R mutant gene assessed as incorporation of [3H]hypoxanthine after 48 hrs by scintillation counter
[25] = system: Plasmodium falciparum; assay: Antimalarial activity against Plasmodium falciparum IMT K14 assessed as incorporation of [3H]hypoxanthine after 48 hrs by scintillation counter
[26] = system: Plasmodium falciparum; assay: Antimalarial activity against Plasmodium falciparum IMT 8425 assessed as incorporation of [3H]hypoxanthine after 48 hrs by scintillation counter
[27] = system: Plasmodium falciparum; assay: Antimalarial activity against Plasmodium falciparum IMT Guy assessed as incorporation of [3H]hypoxanthine after 48 hrs by scintillation counter
[28] = system: Plasmodium falciparum; assay: Antimalarial activity against Plasmodium falciparum IMT K14 harboring Ppcrt M74I, N75E, K76T, A220S, Q271E, N326S mutant gene, Pmdr1 Y184F, S1034C, N1042D, D1246Y mutant gene and Pfmrp H191Y and S437A mutant gene assessed as incorporation of [3H]hypoxanthine after 48 hrs by scintillation counter
[29] = system: Plasmodium falciparum; assay: Antimalarial activity against Plasmodium falciparum HB3 harboring Ppcrt I371R mutant gene and Pfmdr1 Y184F mutant gene assessed as incorporation of [3H]hypoxanthine after 48 hrs by scintillation counter
[30] = system: Plasmodium falciparum; assay: Antimalarial activity against Plasmodium falciparum IMT 9881 harboring Ppcrt I371R mutant gene assessed as incorporation of [3H]hypoxanthine after 48 hrs by scintillation counter
[31] = system: Plasmodium falciparum; assay: Antimalarial activity against Plasmodium falciparum W2 assessed as incorporation of [3H]hypoxanthine after 48 hrs by scintillation counter
[32] = system: Plasmodium falciparum; assay: Antimalarial activity against Plasmodium falciparum IMT K2 harboring Ppcrt M74I, N75E, K76T, A220S, Q271E, N326S mutant gene, Pmdr1 S1034C, N1042D mutant gene and Pfmrp H191Y and S437A mutant gene assessed as incorporation of [3H]hypoxanthine after 48 hrs by scintillation counter

In the case of CC(C)c1c(C(=O)Nc2ccccc2)c(-c2ccccc2)c(-c2ccc(F)cc2)n1CC[C@@H](O)C[C@@H](O)CC(=O)O [ATORVASTATIN], the IC50 [1] is reported as 8.7 µM, the IC50 [2] is reported as 2.5 µM and the IC50 [3] is reported as 2.5 µM. For the same compound, the IC50 [4] was 8 µM, the IC50 [5] was 2.5 µM and the IC50 [6] was 7.6 µM. For the same compound, the IC50 [7] was 5.9 µM, the IC50 [8] was 6.9 µM and the IC50 [9] was 2.5 µM. The IC50 [10] was 8.2 µM, the IC50 [11] was 6.7 µM and the IC50 [12] was 6 µM. It also gave an IC50 [13] of 2.5 µM, an IC50 [14] of 8.2 µM and an IC50 [15] of 2.5 µM. The IC50 [16] was 7.1 µM, the IC50 [17] was 2.5 µM and the IC50 [18] was 2.5 µM. It also gave an IC50 [19] of 2.5 µM, an IC50 [20] of 5.9 µM and an IC50 [21] of 2.5 µM. The IC50 [22] was 9 µM, the IC50 [23] was 2.5 µM and the IC50 [24] was 5.9 µM. For the same compound, the IC50 [25] was 2.5 µM, the IC50 [26] was 2.5 µM and the IC50 [27] was 2.5 µM. The IC50 [28] was 6.9 µM, the IC50 [29] was 10.8 µM and the IC50 [30] was 7.3 µM. The IC50 [31] was 2.5 µM and the IC50 [32] was 8.6 µM.
